Results: ChEMBL document CHEMBL4130476, “4-Alkyliden-azetidinones modified with plant derived polyphenols: Antibacterial and antioxidant properties” (2017)
Converted amounts (≈) assume the structure as drawn.

What was measured:
Assay type in all cases: functional
Enterococcus faecalis [1] = assay: Antibacterial activity against linezolid and […] 4150 assessed as inhibition of bacterial growth incubated for 18 to 24 hrs by broth microdilution method
Enterococcus faecium = assay: Antibacterial activity against linezolid and vancomycin-resistant Enterococcus faecium VRE2 assessed as inhibition of bacterial growth incubated for 18 to 24 hrs by broth microdilution method
Enterococcus faecalis [2] = assay: Antibacterial activity against Enterococcus faecalis ATCC 29212 assessed as inhibition of bacterial growth incubated for 18 to 24 hrs by broth microdilution method
Staphylococcus hominis = assay: Antibacterial activity against linezolid and methicillin-resistant Staphylococcus hominis alpha26 assessed as inhibition of bacterial growth incubated for 18 to 24 hrs by broth microdilution method
[3] = Antioxidant activity assessed as DPPH scavenging activity by measuring mmol of Trolox equivalent antioxidant capacity incubated for 40 mins
Staphylococcus aureus [4] = assay: Antibacterial activity against methicillin-susceptible Staphylococcus aureus 39249 assessed as inhibition of bacterial growth incubated for 18 to 24 hrs by broth microdilution method
[5] = system: Staphylococcus epidermidis; assay: Antibacterial activity against methicillin-susceptible Staphylococcus epidermidis 3226 assessed as inhibition of bacterial growth incubated for 18 to 24 hrs by broth microdilution method
[6] = system: Staphylococcus epidermidis; assay: Antibacterial activity against linezolid and methicillin-resistant Staphylococcus epidermidis G1027 assessed as inhibition of bacterial growth incubated for 18 to 24 hrs by broth microdilution method
[7] = Antioxidant activity assessed as ABTS scavenging activity by measuring mmol of Trolox equivalent antioxidant capacity incubated for 6 mins
Staphylococcus aureus [8] = assay: Antibacterial activity against Staphylococcus aureus ATCC 29213 assessed as inhibition of bacterial growth incubated for 18 to 24 hrs by broth microdilution method
Staphylococcus aureus [9] = assay: Antibacterial activity against linezolid and methicillin-resistant Staphylococcus aureus SAU-1 assessed as inhibition of bacterial growth incubated for 18 to 24 hrs by broth microdilution method
Staphylococcus aureus [10] = assay: Antibacterial activity against methicillin-resistant Staphylococcus aureus 44674 assessed as inhibition of bacterial growth incubated for 18 to 24 hrs by broth microdilution method
Staphylococcus aureus [11] = assay: Antibacterial activity against methicillin-susceptible Staphylococcus aureus 69856 assessed as inhibition of bacterial growth incubated for 18 to 24 hrs by broth microdilution method

| SMILES | MIC (Enterococcus faecalis [1]) | MIC (Enterococcus faecium) | MIC (Enterococcus faecalis [2]) | MIC (Staphylococcus hominis) | Activity [3] | MIC (Staphylococcus aureus [4]) | MIC [5] | MIC [6] | Activity [7] | MIC (Staphylococcus aureus [8]) | MIC (Staphylococcus aureus [9]) | MIC (Staphylococcus aureus [10]) | MIC (Staphylococcus aureus [11]) |
| --- | --- | --- | --- | --- | --- | --- | --- | --- | --- | --- | --- | --- | --- |
| CN[C@H](CC(C)C)C(=O)N[C@H]1C(=O)N[C@@H](CC(N)=O)C(=O)N[C@H]2C(=O)N[C@H]3C(=O)N[C@H](C(=O)N[C@H](C(=O)O)c4cc(O)cc(O)c4-c4cc3ccc4O)[C@H](O)c3ccc(c(Cl)c3)Oc3cc2cc(c3O[C@@H]2O[C@H](CO)[C@@H](O)[C@H](O)[C@H]2O[C@H]2C[C@](C)(N)[C@H](O)[C@H](C)O2)Oc2ccc(cc2Cl)[C@H]1O [VANCOMYCIN] | 0.25 µg/mL (≈ 0.173 µM) | > 128 µg/mL | 2 µg/mL (≈ 1.38 µM) | 1 µg/mL (≈ 0.69 µM) | – | – | – | – | – | – | – | – | – |
| C[C@@H](OC(=O)c1ccc(O)c(O)c1)[C@H]1C(=O)N/C1=C\C(=O)OCc1ccccc1 | 128 µg/mL (≈ 322 µM) | 128 µg/mL (≈ 322 µM) | 128 µg/mL (≈ 322 µM) | > 128 µg/mL | 2.59 mmolequiv | 4 µg/mL (≈ 10.1 µM) | 16 µg/mL (≈ 40.3 µM) | 16 µg/mL (≈ 40.3 µM) | 1.3 mmolequiv | 16 µg/mL (≈ 40.3 µM) | 16 µg/mL (≈ 40.3 µM) | 8 µg/mL (≈ 20.1 µM) | 4 µg/mL (≈ 10.1 µM) |
| COc1cc(/C=C/C(=O)O[C@H](C)[C@H]2C(=O)N/C2=C\C(=O)OCc2ccccc2)ccc1O | 8 µg/mL (≈ 18.3 µM) | > 128 µg/mL | > 128 µg/mL | 4 µg/mL (≈ 9.14 µM) | 0.142 mmolequiv | 8 µg/mL (≈ 18.3 µM) | 8 µg/mL (≈ 18.3 µM) | 4 µg/mL (≈ 9.14 µM) | 0.284 mmolequiv | 4 µg/mL (≈ 9.14 µM) | 4 µg/mL (≈ 9.14 µM) | 4 µg/mL (≈ 9.14 µM) | 8 µg/mL (≈ 18.3 µM) |
| C[C@@H](OC(=O)/C=C/c1ccc(O)c(O)c1)[C@H]1C(=O)N/C1=C\C(=O)OCc1ccccc1 | > 128 µg/mL | > 128 µg/mL | > 128 µg/mL | > 128 µg/mL | 1.67 mmolequiv | > 128 µg/mL | > 128 µg/mL | > 128 µg/mL | 1.03 mmolequiv | > 128 µg/mL | > 128 µg/mL | > 128 µg/mL | > 128 µg/mL |
| C[C@@H](OC(=O)c1ccc2c(c1)OCO2)[C@H]1C(=O)N/C1=C\C(=O)OCc1ccccc1 | > 128 µg/mL | > 128 µg/mL | > 128 µg/mL | 4 µg/mL (≈ 9.77 µM) | 0.012 mmolequiv | 4 µg/mL (≈ 9.77 µM) | 8 µg/mL (≈ 19.5 µM) | 4 µg/mL (≈ 9.77 µM) | – | 2 µg/mL (≈ 4.89 µM) | 2 µg/mL (≈ 4.89 µM) | 4 µg/mL (≈ 9.77 µM) | 8 µg/mL (≈ 19.5 µM) |
| CO/N=C(\C(=O)N[C@@H]1C(=O)N2C(C(=O)O)=C(COC(N)=O)CS[C@H]12)c1ccco1 [CEFUROXIME] | > 128 µg/mL | > 128 µg/mL | > 128 µg/mL | 8 µg/mL (≈ 18.9 µM) | – | 2 µg/mL (≈ 4.71 µM) | 0.5 µg/mL (≈ 1.18 µM) | 32 µg/mL (≈ 75.4 µM) | – | 2 µg/mL (≈ 4.71 µM) | > 128 µg/mL | 8 µg/mL (≈ 18.9 µM) | 1 µg/mL (≈ 2.36 µM) |
| C[C@@H](OC(=O)c1ccc(O)cc1)[C@H]1C(=O)N/C1=C\C(=O)OCc1ccccc1 | > 128 µg/mL | > 128 µg/mL | > 128 µg/mL | 16 µg/mL (≈ 42 µM) | 0.007 mmolequiv | > 128 µg/mL | > 128 µg/mL | > 128 µg/mL | 0.01 mmolequiv | 2 µg/mL (≈ 5.24 µM) | 2 µg/mL (≈ 5.24 µM) | > 128 µg/mL | > 128 µg/mL |
| C[C@@H](OC(=O)/C=C/c1ccc(O)cc1)[C@H]1C(=O)N/C1=C\C(=O)OCc1ccccc1 | 64 µg/mL (≈ 157 µM) | > 128 µg/mL | > 128 µg/mL | 4 µg/mL (≈ 9.82 µM) | 0.003 mmolequiv | 4 µg/mL (≈ 9.82 µM) | 8 µg/mL (≈ 19.6 µM) | 8 µg/mL (≈ 19.6 µM) | 0.053 mmolequiv | 8 µg/mL (≈ 19.6 µM) | 4 µg/mL (≈ 9.82 µM) | 4 µg/mL (≈ 9.82 µM) | 8 µg/mL (≈ 19.6 µM) |
| C[C@@H](OC(=O)c1cccc2c1OCO2)[C@H]1C(=O)N/C1=C\C(=O)OCc1ccccc1 | > 128 µg/mL | > 128 µg/mL | > 128 µg/mL | 8 µg/mL (≈ 19.5 µM) | – | > 128 µg/mL | > 128 µg/mL | > 128 µg/mL | – | 16 µg/mL (≈ 39.1 µM) | 2 µg/mL (≈ 4.89 µM) | > 128 µg/mL | > 128 µg/mL |
| C[C@@H](OC(=O)/C=C/c1ccccc1O)[C@H]1C(=O)N/C1=C\C(=O)OCc1ccccc1 | > 128 µg/mL | > 128 µg/mL | > 128 µg/mL | 2 µg/mL (≈ 4.91 µM) | 0.002 mmolequiv | > 128 µg/mL | > 128 µg/mL | > 128 µg/mL | 0.143 mmolequiv | 2 µg/mL (≈ 4.91 µM) | 1 µg/mL (≈ 2.45 µM) | > 128 µg/mL | > 128 µg/mL |
| C[C@@H](OC(=O)/C=C/c1ccc2c(c1)OCO2)[C@H]1C(=O)N/C1=C\C(=O)OCc1ccccc1 | > 128 µg/mL | > 128 µg/mL | > 128 µg/mL | 128 µg/mL (≈ 294 µM) | – | > 128 µg/mL | > 128 µg/mL | > 128 µg/mL | – | > 128 µg/mL | > 128 µg/mL | > 128 µg/mL | > 128 µg/mL |
| COc1cc(/C=C/C(=O)O[C@H](C)[C@H]2C(=O)N/C2=C\C(=O)OCc2ccccc2)cc(OC)c1O | > 128 µg/mL | > 128 µg/mL | > 128 µg/mL | 4 µg/mL (≈ 8.56 µM) | 0.191 mmolequiv | 8 µg/mL (≈ 17.1 µM) | > 128 µg/mL | > 128 µg/mL | 0.232 mmolequiv | > 128 µg/mL | 8 µg/mL (≈ 17.1 µM) | 8 µg/mL (≈ 17.1 µM) | > 128 µg/mL |
